# Experimental data: PMC9409043, “Serotonin 5-HT6 Receptor Ligands and Butyrylcholinesterase Inhibitors Displaying Antioxidant Activity—Design, Synthesis and Biological Evaluation of Multifunctional Agents against Alzheimer’s Disease” (International Journal of Molecular Sciences, 2022)
# Columns and labels:
# [1] = Metal-chelating properties, spectrophotometric; details: 50 µM ligand and Fe^2+, 250–400 nm
# Excerpt: Metal-chelating properties. The homeostasis of metal ions in the brain is one of the important factors that determine its proper functioning. Disturbed levels of metal ions can lead to overproduction and aggregation of amyloid beta tau proteins and an increase in oxygen radicals production, leading to a degeneration of neurons observed in AD [55]. Additionally, it was observed that iron accumulation in microglia triggers a cascade of events leading to the production of a more sustained inflammatory response with increased reactive oxygen species (ROS) production and increased glycolysis. Adjusting the balance of metal ions by supplementing or chelating may be beneficial in alleviating AD pathology. Thus, we tested the metal-chelating properties of compounds 12–19 against 10 metal ions, recognised as potentially involved in AD. The formation of ligand–ion (Al^3+, Ca^2+, Co^2+, Cu^2+, Fe^2+, Fe^3+, Mg^2+, Ni^2+, Pb^2+ or Zn^2+) complexes was measured spectrophotometrically (250–400 nm with 4 nm interval) at 50 µM concentrations of both, according to the protocol reported previously. Metal-chelating ability was calculated as a shift of absorbance between the absorbance of the ligand–ion mixture and the sum of the absorbance of the ligand and ion separately. […]
# CYP2D6 = molecular target: T1, CYP2D6 (Homo sapiens, UniProt P10635); assay: CYP P450-Glo luminescence assay, CYP2D6; type: in vitro ADME; details: human, CYP2D6 enzyme in the luminescent P450-Glo assay (Promega); 0.1 µM
# T1 construct: purchased Promega, Madison, WI, USA
# Excerpt: Influence on CYP3A4 and CYP2D6 activity. Possible drug–drug interactions (DDIs) are an important issue for elderly patients, who are usually on multiple medications. They may result, among other things, from the interactions (inhibition or activation) of the cytochrome P450 isoenzymes, especially CYP3A4 and CYP2D6, which play the most significant role in drugs’ biotransformation. Therefore, to predict the potential influence of the studied compounds (14, 16 and 19) on the metabolism of other drugs, we used the CYP450 inhibition luminescence assay (Promega). […]. […] […]. […] […].
# The influence on CYP 3A4 and 2D6 activity was estimated by respective luminescent CYP P450-Glo™ assay (Promega®, Madison, WI, USA). The compounds were tested in the concentration range of 0.1–25 µM. The results were compared to the respective reference CYP inhibitors: ketoconazole and quinidine.
# [2] = Metabolic stability in human liver microsomes; type: in vitro ADME
# Description: Metabolic stability. […] For detailed results, including UPLC chromatograms and MS spectra, see the Supporting information (Figures S1–S16).
# The metabolic stability was evaluated by incubation of compounds with human liver microsomes (Sigma-Aldrich, St. Louis, MO, USA) in 10 mM Tris–HCl buffer (pH 7.4) at 37 °C for 120 min in the presence of NADPH Regeneration System (Promega, Madison, WI, USA). The percentage of the remaining substrate and the most probable metabolic pathways were estimated by UPLC-MS analyses of the reaction mixtures.
# [3] = system: HepG2 (human hepatocellular carcinoma) cells; assay: Hepatotoxicity, MTS cell viability test; type: cell-based; details: 72 h
# Description: Hepatotoxicity. To further investigate the safety of the compounds, we determined their hepatotoxicity. We used the MTS test that determines cell viability to assess the effect of compounds 14, 16 and 19 on HepG2 (human hepatocellular carcinoma) cells. The compounds were tested at 1, 10, 50 and 100 μM, and cytostatic drug doxorubicin (DX) at 1 μM was used as a reference compound. […]. The HepG2 (ATCC® HB-8065™) cell line was cultivated according to the procedure provided by ATCC. The tested compounds were incubated with cells for 72 h in the following concentrations: 1, 10, 50 and 100 μM. To evaluate the cells’ viability, CellTiter 96® AQueous Non-Radioactive Cell Proliferation Assay (MTS, Promega®, Madison, WI, USA) was performed. The antiproliferative drug doxorubicin was used as a positive control at the concentration of 1 µM. For determination of the IC50 value for compound 14, additional study was performed. The tested compound was incubated with the HepG2 cells for 72 h in the following nine concentrations: 0.001, 0.01, 0.1, 1, 5, 10, 25, 50 and 100 μM. The cells’ viability was estimated by MTS test. IC50 was calculated by Graph Pad Prism 8.0.1 software.
# [4] = Metabolic stability in mouse liver microsomes; type: in vitro ADME; details: 2 h, pH 7.4
# T1 sequence (P10635 whole entry): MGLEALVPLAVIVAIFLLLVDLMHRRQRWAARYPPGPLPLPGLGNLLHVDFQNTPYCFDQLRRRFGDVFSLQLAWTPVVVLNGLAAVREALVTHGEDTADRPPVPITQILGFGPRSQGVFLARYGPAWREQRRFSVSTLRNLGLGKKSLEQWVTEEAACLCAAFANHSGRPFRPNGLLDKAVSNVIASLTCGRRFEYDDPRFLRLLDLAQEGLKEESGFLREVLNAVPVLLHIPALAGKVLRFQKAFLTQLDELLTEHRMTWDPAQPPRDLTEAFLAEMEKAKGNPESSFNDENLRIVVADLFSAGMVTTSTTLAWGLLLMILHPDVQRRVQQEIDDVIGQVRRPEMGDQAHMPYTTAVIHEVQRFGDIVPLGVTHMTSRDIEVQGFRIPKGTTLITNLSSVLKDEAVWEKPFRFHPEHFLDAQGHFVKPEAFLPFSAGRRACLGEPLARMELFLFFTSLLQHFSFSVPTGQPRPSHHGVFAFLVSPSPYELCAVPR
Compound,Fe^2+ chelating properties (shift of absorbance) [1],inhibition at 0.1 µM (CYP2D6),main metabolic pathway [2],"HLMs % Left ([2]; human, 2 h, pH 7.4)","IC50 ([3]; Homo sapiens, HepG2, MTS test)",fold HepG2 IC50 over Ki for 5-HT6R and IC50 for hBuChE (safety margin) ([3]; human),MLMs % Left [4]
"O=c1[nH]c2c(OCCNCCC3CCN(Cc4ccccc4)CC3)cccc2n1Cc1ccccc1 [Compound 18, 1-Benzyl-4-(2-((2-(1-benzylpiperidin-4-yl)ethyl)amino)ethoxy)-1,3-dihydro-2H-benzo[d]imidazol-2-one]",Fe^2+ ions chelators,–,–,–,–,–,–
"O=S(=O)(c1ccccc1)N1CCc2c(OCCNCC3CCN(Cc4ccccc4)CC3)cccc21 [Compound 15, N-((1-Benzylpiperidin-4-yl)methyl)-2-((1-(phenylsulfonyl)indolin-4-yl)oxy)ethan-1-amine]",Fe^2+ ions chelators,–,–,–,–,–,–
"O=S(=O)(c1ccccc1)n1ccc2c(OCCNCCCC3CCN(Cc4ccccc4)CC3)cccc21 [Compound 14, 3-(1-Benzylpiperidin-4-yl)-N-(2-((1-(phenylsulfonyl)-1H-indol-4-yl)oxy)ethyl)propan-1-amine]",–,~20%,oxidative deamination,84.69%,2.16 µM,at least 98 fold,75.54%
